This note sets out measurements from patent publication US6403535B1, “Substituted thiazol(in) ylideneamino sulfonylamino (thio)carbonyl-triazolinones” (Bayer Aktiengesellschaft, priority 1998, dated 2002).

Data set [1] relates to weeds. Briefly: Pre-emergence test, activity against weeds. Type of data set: in vivo. Here is the method: (§1) To produce a suitable preparation of active compound, 1 part by weight of active compound is mixed with the stated amount of solvent, the stated amount of emulsifier is added and the concentrate is diluted with water to the desired concentration.
(§2) Seeds of the test plants are sown in normal soil. After about 24 hours, the soil is sprayed with the preparation of active compound such that the particular amount of active compound desired is applied per unit area. The concentration of the spray liquor is chosen so that the particular amount of active compound desired is applied in 1000 liters of water per hectare.
(§3) After three weeks, the degree of damage to the plants is rated in % damage in comparison to the development of the untreated control.
(§4) 0%=no effect (like untreated control)

Data set [2] has as its system weeds. Briefly: Post-emergence test, activity against weeds. Type of data set: in vivo. On the procedure:
as §1
(§5) Test plants of a height of 5 -15 cm are sprayed with the preparation of active compound such that the particular amounts of active compound desired are applied per unit area. The concentration of the spray liquor is chosen so that the particular amounts of active compound desired are applied in 1000 l of water/ha.
as §3, §4

The test system of the next data set is Matricaria. The data set is described as follows: Pre-emergence test/greenhouse. Type of data set: in vivo. Conditions: 504 h, after three weeks, read-out: degree of damage, Matricaria; for pest or weed control at 125 g/ha: 125 g of a.i./ha. Here is the method: as §1, §2, §3, §4
For data set [3], the system named is Amaranthus. Briefly: Pre-emergence test/greenhouse. Particulars: 504 h, after three weeks, read-out: degree of damage, Amaranthus; for pest or weed control at 125 g/ha: 125 g of a.i./ha. Type of data set: in vivo. Here is the method:
as §1, §2, §3, §4

Data set [4] has as its system Veronica. The data set is described as follows: Pre-emergence test/greenhouse. Type of data set: in vivo. Conditions: 504 h, after three weeks, read-out: degree of damage, Veronica; for pest or weed control at 125 g/ha: 125 g of a.i./ha. On the procedure: as §1, §2, §3, §4
The next data set deals with Setaria. The data set is described as follows: Pre-emergence test/greenhouse. Type of data set: in vivo. Particulars: after three weeks. Here is the method: as §1, §2, §3, §4
The test system of data set [5] is Echinochloa. The data set is described as follows: Pre-emergence test/greenhouse. Type of data set: in vivo. Conditions: 504 h, after three weeks, read-out: degree of damage, Echinochloa; for pest or weed control at 125 g/ha: 125 g of a.i./ha. Here is the method:
as §1, §2, §3, §4

In the next data set the test system is Polygonum. The data set is described as follows: Post-emergence test/greenhouse. Type of data set: in vivo. Conditions: 60 g of a.i./ha, after three weeks. On the procedure: as §1, §5, §3, §4
Data set [6] deals with Amaranthus. The data set is described as follows: Post-emergence test/greenhouse. Type of data set: in vivo. Particulars: 504 h, 60 g of a.i./ha, after three weeks, read-out: degree of damage, Amaranthus. On the procedure: as §1, §5, §3, §4
In data set [7] the test system is Veronica. Briefly: Post-emergence test/greenhouse. Type of data set: in vivo. Conditions: 60 g of a.i./ha, after three weeks. On the procedure: as §1, §5, §3, §4
The test system of another data set is Sorghum. Briefly: Post-emergence test/greenhouse. Type of data set: in vivo. Particulars: 60 g of a.i./ha, after three weeks. On the procedure:
as §1, §5, §3, §4

The subject of data set [8] is Echinochloa. Briefly: Post-emergence test/greenhouse. Particulars: 60 g of a.i./ha, after three weeks. Type of data set: in vivo. Here is the method: as §1, §5, §3, §4
In a further data set the test system is Digitaria. Briefly: Pre-emergence test/greenhouse. Type of data set: in vivo. Conditions: 125 g of a.i./ha, after three weeks. On the procedure:
as §1, §2, §3, §4

A further data set relates to Chenopodium. Briefly: Pre-emergence test/greenhouse. Type of data set: in vivo. Particulars: 125 g of a.i./ha, after three weeks. Here is the method: as §1, §2, §3, §4
Another data set concerns Sugar beet. Briefly: Pre-emergence test/greenhouse. Type of data set: in vivo. Particulars: 125 g of a.i./ha, after three weeks, 0%=no effect, 100%=total destruction. On the procedure:
as §1, §2, §3, §4

The test system of the next data set is Maize. The data set is described as follows: Pre-emergence test/greenhouse. Conditions: 125 g of a.i./ha, after three weeks, 0%=no effect, 100%=total destruction. Type of data set: in vivo. On the procedure: as §1, §2, §3, §4

For the compound `CCOc1nn(C(=O)NS(=O)(=O)/N=c2\sccn2CCCF)c(=O)n1C` [Example 1], the melting point (commonly the temperature, or range, at which the solid turns liquid) was determined as 178 °C. Further, the activity against weeds result in the data set on weeds [1] is listed as “very strong activity”. In the data set with weeds [2], the activity against weeds entry is on record as “very strong activity”. Further, the pest or weed control at 60 g/ha in the data set on Matricaria (60 g of a.i./ha) was 100%. The pest or weed control at 60 g/ha in the data set with Amaranthus [3] (60 g of a.i./ha) is 100%. Further, in the data set with Veronica [4] (60 g of a.i./ha), the pest or weed control at 60 g/ha stood at 100%. Further, in the data set with Setaria (60 g of a.i./ha), the “degree of damage, Setaria” value turned out to be 100%. Further, the pest or weed control at 60 g/ha with Echinochloa [5] (60 g of a.i./ha) was 100%. Besides, in the data set on Polygonum, the “degree of damage, Polygonum” value is recorded as 90%. Also, the pest or weed control at 60 g/ha in the data set with Amaranthus [6] stood at 95%. Also, the “degree of damage, Veronica” value in the data set on Veronica [7] is listed as 90%. In the data set with Sorghum, the “degree of damage, Sorghum” value is on record as 95%. Further, in the data set on Echinochloa [8], the “degree of damage, Echinochloa” value came out at 95%.

As for `CCCn1ccs/c1=N\S(=O)(=O)NC(=O)n1nc(OCC)n(C2CC2)c1=O` [Example 30], the activity against weeds result in the data set on weeds [1] is listed as “very strong activity”. The pest or weed control at 125 g/ha with Matricaria is 100%; with Amaranthus [3], 100%; in the data set on Veronica [4], 100%; in the data set with Echinochloa [5] it was 95%. Also, in the data set on Digitaria, the “degree of damage, Digitaria” value came out at 90%. The “degree of damage, Chenopodium” value with Chenopodium was determined as 100%.

`COc1nn(C(=O)NS(=O)(=O)/N=c2\sccn2CCCF)c(=O)n1C` [Example 124]: the melting point is 189 °C. The activity against weeds entry in the data set on weeds [1] is reported as “very strong activity”. The “degree of damage, Sugar beet” value in the data set with Sugar beet was found to be 0%. Besides, the pest or weed control at 125 g/ha in the data set on Matricaria is 100%. Moreover, in the data set with Amaranthus [3], the pest or weed control at 125 g/ha came to 70%. The pest or weed control at 125 g/ha in the data set with Veronica [4] came out at 95%. Besides, in the data set with Maize, the “degree of damage, Maize” value is 0%. In addition, the “degree of damage, Setaria” value with Setaria (125 g of a.i./ha) turned out to be 95%. In the data set with Echinochloa [5], the pest or weed control at 125 g/ha worked out at 90%.
